The text below walks through data of US8614054B2, “Laser scanning cytometry mediated analysis of therapeutic efficacy in tumors” (Board of Regents, The University of Texas System, priority 2000, dated 2013).

One test deals with endothelial cells. Description: LSC quantification of endothelial cell density (ED) in tumor biopsies. The note with it: following 56 days of treatment. In kind it is in vivo, human. How it is done: FIGS. 17A-B—FIG. 17A Is a diagram showing the concept of quantifying endothelial cells in a tumor biopsy using the LSC. The LSC is used to count endothelial and tumor cells independently in a biopsy. Endothelial cell density (ED) is calculated by dividing the total number of endothelial cells by the total number of tumor cells. FIG. 17B Graph showing that Endostatin decreased ED 1.3 fold following 56 days of treatment.
(§1) After the scan is complete, the gates are set on the scattergram so that the collected data can be analyzed. Relocation of a cell is used to visualize which cells are positive, i.e. CD31 and/or TUNEL positive. Visualization allows the gate on the scattergram to be moved so that the positive cells fall in the appropriate quadrant. The data file can be replayed to obtain the number of cells in each quadrant that are representative of the total percent of all cells counted. […] For BVD, the instruments software is set to contour on CD31 fluorescence. […] The instrument then scans the same area but counts the number of blood vessels, i.e. a single vessel is counted by contiguous fluorescent light. […] BVD can be calculated for that sample by dividing the blood vessel count by the total number of tumor endothelial cells. Endothelial cell density is determined by dividing the total number of endothelial cells by the total number of tumor cells.

The subject of the next test is tumor cells. The test can be described thus: LSC analysis of tumor cell death in patient biopsies pre and post-treatment with endostatin. In kind it is in vivo, human. To be noted: for change in tumor cell death: pre vs post-treatment. From the text:
Tumor specimens or patient biopsies are obtained prior to and several time points post-treatment such as 1, 3, and 7 days or more. Tissue sections are stained using an immunofluorescent double-labeling technique which permits the simultaneous detection of endothelial cells and fluorescent markers of apoptosis such as TUNEL or caspase activity. The tissue sections are scanned by the LSC and cell data is collected by the instrument's software. For the first scan, the Wincyte software is setup by the user to contour on the cell nuclei based on propidium iodide staining. Contouring on the cell nuclei provides the total cell number of the tissue specimen and creates a ‘tissue map’ which permits selective gating of the tumor cells. In addition, contouring on the cell nuclei permits the software to identify endothelial cells (based on CD31 and/or CD34, Pharmingen, Inc., fluorescent staining) and/or TUNEL positive cells (based on fluorescent TUNEL, Promega, Inc.). […] A substantial increase in endothelial cell death post-treatment will indicate drug efficacy to induce apoptosis in tumor endothelial cells. Subsequent to endothelial cell death is the decay of the tumor vasculature. For the second scan, the Wincyte software is setup by the user to contour on the blood vessels of the tumor. The contouring is based on the fluorescence of the endothelial cell markers (CD31 and/or CD34). […] If the treatment targets the tumor vasculature, the number of blood vessels in the tumor will be dramatically lower post-treatment.
Biopsies at different tumor sites were obtained from each of the five patients prior to and after treatment. The biopsies were stained with TUNEL and cy5 labeled antibody to CD31/[…]. […] FIGS. 8-9 represent LSC data from two of the patients. […] The data obtained from contouring on the blood vessels is shown in FIG. 12 where a representative image of blood vessel staining (CD31) is shown.
This gives a difference of 0.23. The 95% CI for this difference is (0.00,0.47), p=0.050 and is significant.

The test system of test [1] is tumor vasculature. Description: LSC-mediated blood vessel contouring (blood vessel density) of patient biopsies pre and post-treatment with endostatin. It is filed as in vivo, human. Here is the method:
(§2) Blood vessel density is defined herein as the number of blood vessels as determined from analyzing the fluorescence emission of markers bound to the endothelial cells divided by the total number of cells in the tumor as determined from analyzing the fluorescence emission of markers bound to the cell nuclei. Endothelial cell density is measured because it is a more sensitive marker. Breaks in fluorescence of the endothelial cell stain will delimitate individual blood vessels.
After the scan is complete, the gates are set on the scattergram so that the collected data can be analyzed. Relocation of a cell is used to visualize which cells are positive, i.e. CD31 and/or TUNEL positive. Visualization allows the gate on the scattergram to be moved so that the positive cells fall in the appropriate quadrant. The data file can be replayed to obtain the number of cells in each quadrant that are representative of the total percent of all cells counted. […] For BVD, the instruments software is set to contour on CD31 fluorescence. In Examples 2-7, this is by selecting the long red filter during the setup. The instrument then scans the same area but counts the number of blood vessels, i.e. a single vessel is counted by contiguous fluorescent light. […] BVD can be calculated for that sample by dividing the blood vessel count by the total number of tumor endothelial cells. Endothelial cell density is determined by dividing the total number of endothelial cells by the total number of tumor cells.
Tumor specimens or patient biopsies are obtained prior to and several time points post-treatment such as 1, 3, and 7 days or more. Tissue sections are stained using an immunofluorescent double-labeling technique which permits the simultaneous detection of endothelial cells and fluorescent markers of apoptosis such as TUNEL or caspase activity. The tissue sections are scanned by the LSC and cell data is collected by the instrument's software. […] The contouring is based on the fluorescence of the endothelial cell markers (CD31 and/or CD34). […]

For test [2], the system named is tumor endothelial cells. The test can be described thus: LSC analysis of tumor endothelial cell death in patient biopsies pre and post-treatment with endostatin. In kind it is in vivo, human. An excerpt: (§3) Tumor specimens or patient biopsies are obtained prior to and several time points post-treatment such as 1, 3, and 7 days or more. Tissue sections are stained using an immunofluorescent double-labeling technique which permits the simultaneous detection of endothelial cells and fluorescent markers of apoptosis such as TUNEL or caspase activity. The tissue sections are scanned by the LSC and cell data is collected by the instrument's software. For the first scan, the Wincyte software is setup by the user to contour on the cell nuclei based on propidium iodide staining. Contouring on the cell nuclei provides the total cell number of the tissue specimen and creates a ‘tissue map’ which permits selective gating of the tumor cells. In addition, contouring on the cell nuclei permits the software to identify endothelial cells (based on CD31 and/or CD34, Pharmingen, Inc., fluorescent staining) and/or TUNEL positive cells (based on fluorescent TUNEL, Promega, Inc.). […] A substantial increase in endothelial cell death post-treatment will indicate drug efficacy to induce apoptosis in tumor endothelial cells. Subsequent to endothelial cell death is the decay of the tumor vasculature. For the second scan, the Wincyte software is setup by the user to contour on the blood vessels of the tumor. The contouring is based on the fluorescence of the endothelial cell markers (CD31 and/or CD34). […]

The next test relates to breast tumor cells. To be noted: breast cancer patients, following neoadjuvant chemotherapy (FIG. 14).
Test [3] deals with tumor endothelial cells. Description: LSC analysis of endothelial cell death (CD31/TUNEL double staining) in treated mouse tumors. In kind it is in vivo. The note with it: mouse liver metastasis model, treated vs untreated tumors.
Text: as §3

Test [4] relates to tumor vasculature. The test can be described thus: LSC-mediated blood vessel contouring (blood vessel density) in mouse tumors. It is filed as in vivo. To be noted: treated mouse tumor, Cy5 label; untreated mouse tumor 52%. How it is done:
as §2
as §1, with “TUNEL positive. […] The data” for “TUNEL positive. Visualization allows the gate on the scattergram to be moved so that the positive cells fall in the appropriate quadrant. The data”, “tumor cells. […]” for “tumor cells.”

Protocol for breast tumor cells: FIGS. 14A-E—Biopsies taken from breast cancer patients pre and post-treatment (24, 48, 66 hours) following neoadjuvant chemotherapy were processed and stained for fluorescent TUNEL. The number of TUNEL positive cells were counted and results are represented as a percent of total cells counted. FIGS. 14F-H—Biopsies taken from breast cancer patients pre, 24, and 48 hours following neoadjuvant chemotherapy were processed and stained for fluorescent TUNEL. FIG. 14F—Representative image of tumor cell apoptosis in a human breast tumor biopsy pre- and post-chemotherapy (48 hrs.) before it is scanned by the LSC. […] FIG. 14G—Representative image of tumor cell apoptosis in a human breast tumor biopsy pre- and post-chemotherapy (48 hrs.) before it is scanned by the LSC. […] FIG. 14H—Bar graph showing the percent change in apoptotic tumor cells post-chemotherapy (24 & 48 hrs.).

endostatin: the “decrease of endothelial cell density (ED)” value in the test with endothelial cells was 1.3 fold. In addition, the “difference in change of tumor cell death between doses” value with tumor cells (>60 mg vs <60 mg, 95% CI (0.00,0.47), p=0.050, significant) stood at 0.23. For the same molecule, the “change in tumor cell death” value in the test on tumor cells (dose of <60 mg) turned out to be 0.02; in the test on tumor cells (dose of >60 mg), 0.26. Further, in the test on tumor cells (patients treated for two months, pre vs post-treatment (FIG. 10)), the apoptotic tumor cells result is given as “two out of four patients had a dramatic increase”. Moreover, the “effect of dosing on blood vessel density” value with tumor vasculature [1] (<60 mg vs >60 mg) is “not significant”. Moreover, the blood vessel density entry with tumor vasculature [1] (Patient 1, treated for two months (FIG. 13)) is reported as “dramatic decrease”. Also, in the test with tumor vasculature [1] (patient biopsy post-treatment with endostatin, pre-treatment BVD 53%), the BVD post-treatment is on record as 28%. Moreover, the “effect of dosing on tumor endothelial cell death” value with tumor endothelial cells [2] (<60 mg vs >60 mg) was “not significant”. Further, the apoptotic endothelial cells entry with tumor endothelial cells [2] (patients treated for two months, pre vs post-treatment (FIG. 11)) is given as “two out of four patients had a dramatic increase”.

As for `CC(=O)O[C@H]1C(=O)[C@@]2(C)[C@H]([C@H](OC(=O)c3ccccc3)[C@]3(O)C[C@H](OC(=O)[C@H](O)[C@@H](NC(=O)c4ccccc4)c4ccccc4)C(C)=C1C3(C)C)[C@]1(OC(C)=O)CO[C@@H]1C[C@@H]2O` [taxol], the “number of apoptotic tumor cells” value in the test with breast tumor cells is on record as “dramatic increase”.

As for `Cc1[nH]c(/C=C2\C(=O)Nc3ccccc32)c(C)c1CCC(=O)O` [SU6668], in the test on tumor endothelial cells [3], the endothelial cell death entry is recorded as “significant endothelial cell death”. Also, the blood vessel density in the test on tumor vasculature [4] was found to be 55%.
